Earlier results on one molecule are cited in patent US6797282B2, “Combination progestin oral contraceptive regimen” (Ortho-McNeil Pharmaceutical, Inc., priority 1997, dated 2004).

This series relates to endometrium. The following applies: primates; Wilborn et al 1984.

Turning to `C#C[C@]1(OC(C)=O)CC[C@H]2[C@@H]3CCC4=CC(=NO)CC[C@@H]4[C@H]3CC[C@@]21CC` (mixture of isomers) [Norgestimate], the “effect on endometrium in comparison to other progestins” value was “endometrial sparing effect”.
